{
  "source": "patent US20260355142A1",
  "about": "“AMORPHOUS OTE[…] COMPOSITIONS AND USES THEREOF AND DOSAGE REGIMENS FOR OTENAPROXESUL” (ANTIBE THERAPEUTICS INC., priority 2022, published 2026)",
  "key": {"PGE2": {"tested_on": "PGE2", "experiment": "Pharmacodynamics in Beagle dogs, plasma PGE2", "format": "in vivo", "conditions": "15 mg/kg", "procedure": "The pharmacokinetics of five different formulations of otenaproxesul (formerly ATB-346) were evaluated in Beagle dogs. Five groups of dogs (n=3/group) were orally administered their assigned formulations once daily for four days. Blood samples were taken for a full 24-hour PK profile on Day 1 and on Day 4.\nGroup 1 was administered crystalline otenaproxesul, Group 2 was administered milled crystalline otenaproxesul, Group 3 was administered micro-milled crystalline otenaproxesul, Group 4 was administered exemplary ASD no. 1 (see Example 7A above) and Group 5 was administered exemplary ASD no. 4 (see Example 7A above). Dose administered was 15 mg/kg (human equivalent dose of 525 mg).\nPharmacodynamic assessment of TXB2 and PGE2 plasma concentrations were assessed on: • Day 1, one hour post treatment • Day 1, 12 hours post treatment • Day 4, pre-treatment • Day 4, one hour post treatment • Day 4, 12 hours post treatment."}, "liver adverse effects": {"tested_on": "liver adverse effects", "experiment": "Clinical study of three crystalline otenaproxesul regimens, liver safety", "format": "in vivo, human", "conditions": "1500 mg single; 1500 mg + 100 mg Days 2-5; 2000 mg single", "procedure": "Data were collected over a 312-hour period at protocol-specified intervals. Sampling was most frequent during the first 2 hours post drug administration. Treatment regimens were (i) otenaproxesul single dose 1500 mg (Total 1500 mg); (ii) crystalline otenaproxesul Day 1 single dose 1500 mg plus 100 mg on Days 2-5 (Total 1900 mg) or (iii) crystalline otenaproxesul single dose 2000 mg (Total 2000 mg)."}, "[1]": {"tested_on": "osteoarthritis of the knee", "experiment": "Phase 2b study, change in WOMAC subscale scores in osteoarthritis of the knee", "format": "in vivo, human", "conditions": "for WOMAC pain, stiffness and DPDA subscale scores: Baseline to Day 14", "procedure": "This study evaluated the efficacy of a 14-day dosing regimen of crystalline otenaproxesul at doses of 150 mg, 200 mg and 250 mg compared to placebo in reducing osteoarthritis knee pain (a chronic pain condition) as measured by changes in the post-treatment Western Ontario and McMaster Universities Osteoarthritis Index (WOMAC) subscale pain score relative to each patient's pretreatment baseline WOMAC assessment. In patients with bilateral knee osteoarthritis, the most painful knee (index knee) or if in both knees of equal pain, then 1 index knee was noted and has been used for the WOMAC assessments throughout the study. The three doses were selected based on state-of-the-art knowledge of efficacy and safety for otenaproxesul at the time of the trial.\nThis study was a double-blind, placebo-controlled Phase 2B study that explored 3 different doses (150 mg, 200 mg, and 250 mg) of orally administered crystalline otenaproxesul in male and female patients diagnosed with osteoarthritis of the knee. Patients were randomly assigned in a 2:2:1:1 allocation ratio to otenaproxesul 250 mg, 200 mg, 150 mg, or placebo.\n(§1) Study visits occurred on Day 1, Day 4, and Day 14 of the 14-day treatment phase and included WOMAC evaluations, blood samples for thromboxane B2 TXB2 and pharmacokinetic (PK) testing. The safety of otenaproxesul was evaluated through monitoring for adverse events (AEs), changes in physical examinations, vital signs measurements, and clinical laboratory evaluations.\nThe efficacy of treatment with otenaproxesul was assessed by measuring the change in the WOMAC VAS version 3.1 subscale pain, stiffness, and difficulties performing daily activities (DPDA) scores after 14 days relative to each patient's pretreatment baseline WOMAC score.\nAll patients who received 1 dose of study drug (otenaproxesul or placebo) and had at least 1 post-baseline WOMAC pain subscale score observation were included in the primary population for the analysis of efficacy (modified-intent-to-treat population [mITT]). Patients who met the criteria for the primary efficacy analyses and had no major protocol violations that could have impacted the assessment of efficacy (per protocol population [PP]) were evaluated as a supportive analysis. The primary and secondary endpoints were analyzed using a maximum likelihood mixed model repeated measure (MMRM). The model included treatment, visit, baseline WOMAC pain score, and treatment-by-visit interaction as fixed effects, and patient as a random effect. Dose-response analysis was conducted by using a contrast statement to the least squares (LS) means on Day 14 between the dose levels of otenaproxesul and placebo. For patients who received rescue medication within 12 hours before an efficacy assessment, the assessments at that visit were disregarded and considered missing. Analysis of the WOMAC pain subscale score, including the MMRM analysis and descriptive summary, were also presented by sex (male, female) in a subgroup analysis."}, "[2]": {"experiment": "Phase 2b study, safety (treatment-emergent adverse events)", "format": "in vivo, human", "conditions": "for hypertension or blood pressure increased: 2 patients", "procedure": "as §1\nPatients were followed for safety for up to 24 days following initiation of treatment. A final visit for safety assessments occurred upon study completion on Day 24 or early termination.\nAll patients receiving any amount of study treatment (otenaproxesul or placebo) were included in the safety analysis. Each treatment arm was evaluated separately. In addition to the evaluation and categorization of treatment-emergent adverse events (TEAEs), listings of laboratory test results collected at Baseline and during the study were generated. Descriptive statistics summarizing the changes in those laboratory tests over time were presented."}, "thromboxane B2": {"tested_on": "thromboxane B2", "experiment": "Phase 2b study, plasma thromboxane B2", "format": "in vivo, human", "procedure": "Whole blood samples were taken pre-treatment and on Days 1, 4 and 14 for the measurement of thromboxane B2 as an index of cyclo-oxygenase enzyme inhibition. Thromboxane B2 levels were measured using the Thromboxane B2 Elisa Kit from Cayman Chemical, Ann Arbor Michigan. Instructions provided with the Kit were followed.\nBlood samples for measurement of thromboxane concentrations were collected at room temperature in 10 mL red top, no additive Vacutainers. Blood samples were taken approximately 4 hours after dosing and divided into 2 aliquots. The first aliquot (1 mL) was prepared for the measurement of otenaproxesul-derived plasma naproxen concentrations. The second aliquot (2 mL) was further divided into 2 polypropylene tubes for the measurement of plasma thromboxane concentrations."}},
  "data": [
    {"smiles": "COc1ccc2cc([C@H](C)C(=O)Oc3ccc(C(N)=S)cc3)ccc2c1", "note": "[crystalline otenaproxesul]", "values": [
      {"measurement": "PGE2 inhibition", "setting": "PGE2; Day 1 12-hour", "result": "not maintained"},
      {"measurement": "PGE2 inhibition", "setting": "PGE2; Day 4 pre-treatment", "result": "recovered to a large extent"},
      {"measurement": "liver adverse effects", "setting": "liver adverse effects", "result": "No subjects in any of the three treatment arms exhibited any liver adverse effects"},
      {"measurement": "WOMAC pain, stiffness and DPDA subscale scores", "setting": "[1]", "result": "clinically and statistically significant improvement"}
    ]},
    {"smiles": "COc1ccc2cc([C@H](C)C(=O)Oc3ccc(C(N)=S)cc3)ccc2c1", "note": "[otenaproxesul, (S)-4-carbamothioylphenyl 2-(6-methoxynaphthalen-2-yl) propanoate]", "values": [
      {"measurement": "hypertension or hypotension events", "setting": "[2]; 150 mg", "result": "No patients"},
      {"measurement": "patients with TEAEs", "setting": "[2]; 150 mg", "result": 37.7, "unit": "%"},
      {"measurement": "hypotension", "setting": "[2]; 200 mg, 1 patient", "result": 0.8, "unit": "%"},
      {"measurement": "hypertension or blood pressure increased", "setting": "[2]; 200 mg", "result": 1.6, "unit": "%"},
      {"measurement": "patients with TEAEs", "setting": "[2]; 250 mg", "result": 43.9, "unit": "%"},
      {"measurement": "hypertension or blood pressure increased", "setting": "[2]; 250 mg", "result": 1.5, "unit": "%"},
      {"measurement": "TEAE headache", "setting": "[2]; all otenaproxesul groups", "result": 5.0, "unit": "%"},
      {"measurement": "TEAE hepatic enzyme increased", "setting": "[2]; all otenaproxesul groups", "result": 8.2, "unit": "%"},
      {"measurement": "patients with at least 1 TEAE", "setting": "[2]; all otenaproxesul groups", "result": 40.9, "unit": "%"},
      {"measurement": "gastrointestinal disorder TEAEs", "setting": "[2]; all otenaproxesul groups, 14-day treatment", "result": 14.5, "unit": "%"},
      {"measurement": "tolerability", "setting": "[2]; all three doses, 14 days", "result": "well tolerated at all three administered doses"},
      {"measurement": "discontinuation due to gastrointestinal TEAEs", "setting": "[2]; all three treatment arms", "result": "none were discontinued due to TEAEs related to gastrointestinal adverse effects"},
      {"measurement": "serum creatinine", "setting": "[2]; one patient, 200 mg for 14 days, Day 24", "result": 1.5, "unit": "×ULN"},
      {"measurement": "plasma thromboxane B2 levels", "setting": "thromboxane B2; 150 mg daily", "result": "marked reduction in plasma thromboxane B2 levels"},
      {"measurement": "TXB2 levels", "setting": "thromboxane B2; Day 1, 150, 200, 250 mg", "result": "significant suppression of thromboxane B2 levels"},
      {"measurement": "inhibition of TXB2 synthesis", "setting": "thromboxane B2; Day 4, 150, 200, 250 mg", "result": "profound inhibition of thromboxane B2 synthesis"},
      {"measurement": "inhibition of TXB2 synthesis", "setting": "thromboxane B2; Day 14, 150, 200, 250 mg", "result": "profound inhibition of thromboxane B2 synthesis"},
      {"measurement": "reduction in pain, stiffness and DPDA", "setting": "[1]; 150 mg daily", "result": "positive reduction in pain, stiffness and DPDA"},
      {"measurement": "actual mean change in WOMAC stiffness score, Baseline to Day 14", "setting": "[1]; 150 mg once daily, 95% CI −60.3, −36.6", "result": "−48.4", "unit": "mm"},
      {"measurement": "decrease in WOMAC DPDA score vs placebo", "setting": "[1]; 150 mg, Day 14", "result": "not statistically significant"},
      {"measurement": "decrease in WOMAC pain score vs placebo", "setting": "[1]; 150 mg, Day 14", "result": "not statistically significant"},
      {"measurement": "LS mean change in WOMAC stiffness score, Baseline to Day 14", "setting": "[1]; 200 mg once daily, 95% CI −62.6, −46.3", "result": "−54.4", "unit": "mm"},
      {"measurement": "LS mean change in WOMAC pain score, Baseline to Day 14", "setting": "[1]; 200 mg once daily, 95% CI −159.3, −120.6", "result": "−139.9", "unit": "mm"},
      {"measurement": "LS mean change in WOMAC DPDA score, Baseline to Day 14", "setting": "[1]; 200 mg once daily, 95% CI −502.9, 374.1 (so in the source)", "result": "−438.5", "unit": "mm"},
      {"measurement": "LS mean change in WOMAC stiffness score, Baseline to Day 14", "setting": "[1]; 250 mg once daily, 95% CI −63.5, −47.8", "result": "−55.6", "unit": "mm"},
      {"measurement": "LS mean change in WOMAC pain score, Baseline to Day 14", "setting": "[1]; 250 mg once daily, 95% CI −154.0, −116.6", "result": -135, "unit": "mm"},
      {"measurement": "LS mean change in WOMAC DPDA score, Baseline to Day 14", "setting": "[1]; 250 mg once daily, 95% CI −475.1, −350.7", "result": "−412.9", "unit": "mm"},
      {"measurement": "patients having at least a 30% reduction in WOMAC pain scores", "setting": "[1]; 250 mg, Day 14", "result": 63.4, "unit": "%"},
      {"measurement": "patients having at least a 50% reduction in WOMAC pain scores", "setting": "[1]; 250 mg, Day 14", "result": 43.5, "unit": "%"},
      {"measurement": "WOMAC pain, stiffness and DPDA subscale scores", "setting": "[1]", "result": "clinically and statistically significant improvement"},
      {"measurement": "decreases in WOMAC stiffness and DPDA scores", "setting": "[1]; men, 200 mg, Day 14", "result": "reached statistical significance"},
      {"measurement": "decreases in WOMAC pain, stiffness and DPDA scores vs placebo", "setting": "[1]; women, 250 mg and 200 mg, Day 14", "result": "reached statistical significance"}
    ]}
  ]
}
